Reference: US9630984B2, “Compound contained in manuka honey and use of same” (HEALTHCARE SYSTEMS, priority 2011, dated 2017)

Molecular target: T1, human MPO (Homo sapiens, UniProt P05164)
T1 sequence (P05164 49-745): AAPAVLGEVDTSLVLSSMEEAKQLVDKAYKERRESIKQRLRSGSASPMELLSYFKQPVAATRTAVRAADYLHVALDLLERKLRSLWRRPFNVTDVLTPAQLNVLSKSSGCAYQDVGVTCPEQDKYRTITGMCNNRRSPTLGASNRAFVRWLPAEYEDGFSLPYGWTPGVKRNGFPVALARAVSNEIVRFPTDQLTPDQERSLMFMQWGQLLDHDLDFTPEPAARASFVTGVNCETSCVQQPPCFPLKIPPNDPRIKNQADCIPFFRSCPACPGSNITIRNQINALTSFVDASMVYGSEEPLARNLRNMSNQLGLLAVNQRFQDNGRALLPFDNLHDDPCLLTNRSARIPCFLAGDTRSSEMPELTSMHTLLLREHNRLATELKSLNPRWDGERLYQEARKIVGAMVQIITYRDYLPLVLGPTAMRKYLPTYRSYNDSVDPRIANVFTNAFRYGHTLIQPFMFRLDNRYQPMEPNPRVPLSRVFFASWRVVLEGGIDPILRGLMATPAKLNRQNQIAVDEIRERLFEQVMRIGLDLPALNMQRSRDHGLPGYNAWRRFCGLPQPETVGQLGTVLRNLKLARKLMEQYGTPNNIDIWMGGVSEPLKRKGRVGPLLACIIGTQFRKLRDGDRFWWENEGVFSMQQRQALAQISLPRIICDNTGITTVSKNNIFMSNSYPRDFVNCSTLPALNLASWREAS
Test: MPO inhibition activity: inhibition of halogenation of tyrosine residues of biotin-labeled BSA (ELISA with 3A5 antibody)
Format: biochemical
Settings: sample prepared to 5 mM, 10 μl in about 110 μl reaction; 30 minutes at 37° C.; absorbancy 450 nm/550 nm
Experimental: The MPO inhibition activities of the isolated MGGD and its aglycon MSYR were measured by evaluating inhibition of the halogenation of the tyrosine residues of a biotin-labeled protein (bovine serum albumin). It is thus possible to measure either inhibition of the MPO enzyme itself or the ability to extinguish or capture hypobromous acid (HOBr) and other active species produced by the enzyme.
The necessary solutions and the like for the reaction were prepared as follows.
(2) Xanthine oxidase (XOD) (Sigma X4500-25UN) diluted 100× with water.
(4) Biotin-BSA (Sigma-A6043-10MG) dissolved to 1 mg/ml in 0.1 M phosphate buffer with 200 μM NaBr and 200 mM NaCl added in advance, then freeze dried for storage, and diluted to 0.4 mg/ml before use.
(5) Sample prepared to 5 mM.
(6) Reduced glutathione (GSH) (Sigma G-6529) as a positive control.
(7) L-methionine, dissolved in water to 10 mM. […]
50 μl of a 10 μg/ml concentration 3A5 antibody (Nikken Seil) recognizing dihalogenated tyrosines was coated as a primary antibody on each microplate, and left standing overnight at 4° C. […] This was then left standing again for 45 minutes at 37° C. and washed, after which 100 μl of a TMB (3,3′-5,5′-tetramethylbentidine) coloring reagent (A liquid/B liquid=1/1) was added, and absorbancy was measured at 450 nm/550 nm for about 10 minutes with a microplate reader.

With `COC(=O)c1cc(OC)c(O[C@@H]2O[C@H](CO[C@@H]3O[C@H](CO)[C@@H](O)[C@H](O)[C@H]3O)[C@@H](O)[C@H](O)[C@H]2O)c(OC)c1` [MGGD, methyl-4-O-[β-D-glucopyranosyl-(1→6)-β-D-glucopyranosyl]-3,5-dimethoxybenzoate] the “MPO enzyme inhibition activity (halogenated tyrosine production vs control with no added antioxidant)” value was “exhibited MPO enzyme inhibition activity”.
